The record followed here is patent US20260015358A1, “BICYCLIC DERIVATIVES, COMPOSITIONS AND USES THEREOF” (Danatlas Pharmaceuticals Co., Ltd., priority 2023, published 2026).

For assay [1], the target named is T1, WRN [UniPro: Q14191 (WRN_HUMAN), N500-C946] (Homo sapiens (Human), UniProt Q14191). Briefly: WRN ATPase assay (ADP-Glo). The format is biochemical. To be noted: WRN enzymatic activity assay.
In assay [2] the target is T1, WRN [UniPro: Q14191 (WRN_HUMAN), N500-C946]. Briefly: WRN unwinding assay (FORKF DNA, fluorescence). In kind it is biochemical. To be noted: Table 14.

T1 sequence (Q14191 500-946): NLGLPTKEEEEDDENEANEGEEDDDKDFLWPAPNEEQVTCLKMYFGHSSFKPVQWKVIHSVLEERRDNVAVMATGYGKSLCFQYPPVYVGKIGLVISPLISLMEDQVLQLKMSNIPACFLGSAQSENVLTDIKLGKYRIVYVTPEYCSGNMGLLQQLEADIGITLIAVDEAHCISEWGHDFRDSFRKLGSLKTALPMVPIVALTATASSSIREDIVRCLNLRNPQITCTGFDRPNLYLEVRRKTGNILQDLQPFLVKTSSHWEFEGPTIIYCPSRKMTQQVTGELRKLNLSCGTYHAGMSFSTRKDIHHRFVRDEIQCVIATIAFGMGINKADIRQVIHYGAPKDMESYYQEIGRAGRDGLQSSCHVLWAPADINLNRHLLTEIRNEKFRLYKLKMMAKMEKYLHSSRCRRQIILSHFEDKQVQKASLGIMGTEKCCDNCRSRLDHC

Take `CCc1c(N2CCN(C(=O)CNC(=O)N3CCCC3)CC2)c(=O)n2nc(C3=CCOCC3)nc2n1CC(=O)Nc1ccc(C(F)(F)F)cc1Cl` [Example 166, N-(2-(4-(4-(2-((2-Chloro-4-(trifluoromethyl)phenyl)amino)-2-oxoethyl)-2-(3,6-dihydro-2H-pyran-4-yl)-5-ethyl-7-oxo-4,7-dihydro-[1,2,4]triazolo[1,5-a]pyrimidin-6-yl)piperazin-1-yl)-2-oxoethyl)pyrrolidine-1-carboxamide]: the IC50 in assay [1] was 100 to 1000 nM; in assay [2] it was less than 100 nM.

Regarding `CCc1c(N2CCN(C(=O)c3[nH]cnc3C(F)(F)F)CC2)c(=O)n2nc(C3=CCOCC3)nc2n1CC(=O)Nc1ccc(C(F)(F)F)cc1Cl` [Example 31, N-(2-Chloro-4-(trifluoromethyl)phenyl)-2-(2-(3,6-dihydro-2H-pyran-4-yl)-5-ethyl-7-oxo-6-(4-(4-(trifluoromethyl)-1H-imidazole-5-carbonyl)piperazin-1-yl)-[1,2,4]triazolo[1,5-a]pyrimidin-4(7H)-yl)acetamide], the IC50 in assay [1] is 100 to 1000 nM; in assay [2], less than 100 nM.

Turning to `[2H]C([2H])(NC(=O)c1cc(NC)ccc1F)C(=O)N1CCN(c2c(CC)n(CC(=O)Nc3ccc(C(F)(F)F)cc3F)c3nc(C4=CCOCC4)nn3c2=O)CC1` [Example 209, N-(2-(4-(2-(3,6-Dihydro-2H-pyran-4-yl)-5-ethyl-4-(2-((2-fluoro-4-(trifluoromethyl)phenyl)amino)-2-oxoethyl)-7-oxo-4,7-dihydro-[1,2,4]triazolo[1,5-a]pyrimidin-6-yl)piperazin-1-yl)-2-oxoethyl-1,1-d2)-2-fluoro-5-(methylamino)benzamide], the IC50 in assay [1] and in assay [2] was less than 100 nM each time.

Take `CCc1c(N2CCN(C(=O)CNC(=O)c3ccc(F)c(O)c3)CC2)c(=O)n2nc(C3=CCOCC3)nc2n1CC(=O)Nc1ccc(C(F)(F)F)cc1Cl` [Example 292, N-(2-(4-(4-(2-((2-Chloro-4-(trifluoromethyl)phenyl)amino)-2-oxoethyl)-2-(3,6-dihydro-2H-pyran-4-yl)-5-ethyl-7-oxo-4,7-dihydro-[1,2,4]triazolo[1,5-a]pyrimidin-6-yl)piperazin-1-yl)-2-oxoethyl)-4-fluoro-3-hydroxybenzamide]: the IC50 in assay [1] and in assay [2] was less than 100 nM each time.

For `CCc1c(N2CCN(c3nnc(C(F)F)s3)CC2)c(=O)n2nc(C3=CCOCC3)nc2n1CC(=O)Nc1ccc(C(F)(F)F)cc1Cl` [Example 8, N-(2-Chloro-4-(trifluoromethyl)phenyl)-2-(6-(4-(5-(difluoromethyl)-1,3,4-thiadiazol-2-yl)piperazin-1-yl)-2-(3,6-dihydro-2H-pyran-4-yl)-5-ethyl-7-oxo-[1,2,4]triazolo[1,5-a]pyrimidin-4(7H)-yl)acetamide], the IC50 in assay [1] and in assay [2] was more than 1000 nM throughout.

Turning to `CCc1c(N2CCN(C(=O)CNC(=O)c3ccccc3O)CC2)c(=O)n2nc(C3=CCOCC3)nc2n1CC(=O)Nc1ccc(C(F)(F)F)cc1Cl` [Example 269, N-(2-(4-(4-(2-((2-Chloro-4-(trifluoromethyl)phenyl)amino)-2-oxoethyl)-2-(3,6-dihydro-2H-pyran-4-yl)-5-ethyl-7-oxo-4,7-dihydro-[1,2,4]triazolo[1,5-a]pyrimidin-6-yl)piperazin-1-yl)-2-oxoethyl)-2-hydroxybenzamide], the IC50 in assay [1] and in assay [2] was less than 100 nM throughout.

With `CCc1c(N2CCN(C(=O)CNC(=O)NCC3CC3)CC2)c(=O)n2nc(C3=CCOCC3)nc2n1CC(=O)Nc1ccc(C(F)(F)F)cc1Cl` [Example 190, N-(2-Chloro-4-(trifluoromethyl)phenyl)-2-(6-(4-(((cyclopropylmethyl)carbamoyl)glycyl)piperazin-1-yl)-2-(3,6-dihydro-2H-pyran-4-yl)-5-ethyl-7-oxo-[1,2,4]triazolo[1,5-a]pyrimidin-4(7H)-yl)acetamide], the IC50 in assay [1] and in assay [2] was less than 100 nM in each case.

For `CCc1c(N2CCN(C(=O)CNC(=O)c3cccnc3)CC2)c(=O)n2nc(C3=CCOCC3)nc2n1CC(=O)Nc1ccc(C(F)(F)F)cc1Cl` [Example 110, N-(2-(4-(4-(2-((2-Chloro-4-(trifluoromethyl)phenyl)amino)-2-oxoethyl)-2-(3,6-dihydro-2H-pyran-4-yl)-5-ethyl-7-oxo-4,7-dihydro-[1,2,4]triazolo[1,5-a]pyrimidin-6-yl)piperazin-1-yl)-2-oxoethyl)nicotinamide], the concentration for half-maximal inhibition (IC50) in assay [1] and in assay [2] was less than 100 nM each time.

For `CCc1c(N2CCN(C(=O)c3[nH]cnc3F)CC2)c(=O)n2nc(C3=CCOCC3)nc2n1CC(=O)Nc1ccc(C(F)(F)F)cc1Cl` [Example 299, N-(2-Chloro-4-(trifluoromethyl)phenyl)-2-(2-(3,6-dihydro-2H-pyran-4-yl)-5-ethyl-6-(4-(4-fluoro-1H-imidazole-5-carbonyl)piperazin-1-yl)-7-oxo-[1,2,4]triazolo[1,5-a]pyrimidin-4(7H)-yl)acetamide], the IC50 in assay [1] and in assay [2] was 100 to 1000 nM in each case.

For `CCc1c(N2CCN(C(=O)c3sc4cnccc4c3N)CC2)c(=O)n2nc(C3=CCOCC3)nc2n1CC(=O)Nc1ccc(C(F)(F)F)cc1Cl` [Example 6, 2-(6-(4-(3-Aminothieno[2,3-c]pyridine-2-carbonyl)piperazin-1-yl)-2-(3,6-dihydro-2H-pyran-4-yl)-5-ethyl-7-oxo-[1,2,4]triazolo[1,5-a]pyrimidin-4(7H)-yl)-N-(2-chloro-4-(trifluoromethyl)phenyl)acetamide], the 50% inhibitory concentration (IC50) in assay [1] is 100 to 1000 nM; in assay [2] it was less than 100 nM.

In the case of `CCc1c(N2CCN(C(=O)c3cnn4ccc(C)c4c3O)CC2)c(=O)n2nc(C3=CCOCC3)nc2n1CC(=O)Nc1ccc(C(F)(F)F)cc1Cl` [Example 303, N-(2-Chloro-4-(trifluoromethyl)phenyl)-2-(2-(3,6-dihydro-2H-pyran-4-yl)-5-ethyl-6-(4-(4-hydroxy-5-methylpyrrolo[1,2-b]pyridazine-3-carbonyl)piperazin-1-yl)-7-oxo-[1,2,4]triazolo[1,5-a]pyrimidin-4(7H)-yl)acetamide], the IC50 in assay [1] and in assay [2] was less than 100 nM in each case.

In the case of `CCc1c(N2CCN(C(=O)C(=O)Nc3ccccn3)CC2)c(=O)n2nc(C3=CCOCC3)nc2n1CC(=O)Nc1ccc(C(F)(F)F)cc1F` [Example 229, 2-(4-(2-(3,6-Dihydro-2H-pyran-4-yl)-5-ethyl-4-(2-((2-fluoro-4-(trifluoromethyl)phenyl)amino)-2-oxoethyl)-7-oxo-4,7-dihydro-[1,2,4]triazolo[1,5-a]pyrimidin-6-yl)piperazin-1-yl)-2-oxo-N-(pyridin-2-yl)acetamide], the figures for the IC50 in assay [1] and in assay [2] were 100 to 1000 nM and less than 100 nM, respectively.

With `CCNC(=O)C(=O)N1CCN(c2c(CC)n(CC(=O)Nc3ccc(C(F)(F)F)cc3Cl)c3nc(C4=CCOCC4)nn3c2=O)CC1` [Example 336, 2-(4-(4-(2-((2-Chloro-4-(trifluoromethyl)phenyl)amino)-2-oxoethyl)-2-(3,6-dihydro-2H-pyran-4-yl)-5-ethyl-7-oxo-4,7-dihydro-[1,2,4]triazolo[1,5-a]pyrimidin-6-yl)piperazin-1-yl)-N-ethyl-2-oxoacetamide], the IC50 in assay [1] and in assay [2] was 100 to 1000 nM throughout.

Regarding `CCc1c(N2CCN(C(=O)c3c[nH]c(=O)[nH]c3=O)CC2)c(=O)n2nc(C3=CCOCC3)nc2n1CC(=O)Nc1ccc(C(F)(F)F)cc1Cl` [Example 50, N-(2-Chloro-4-(trifluoromethyl)phenyl)-2-(2-(3,6-dihydro-2H-pyran-4-yl)-6-(4-(2,4-dioxo-1,2,3,4-tetrahydropyrimidine-5-carbonyl)piperazin-1-yl)-5-ethyl-7-oxo-[1,2,4]triazolo[1,5-a]pyrimidin-4(7H)-yl)acetamide], the values for the IC50 in assay [1] and in assay [2] were less than 100 nM and 100 to 1000 nM, respectively.

For the compound `CCc1c(N2CCN(C(=O)CNC(=O)c3ccccc3F)CC2)c(=O)n2nc(N3CCOCC3)nc2n1CC(=O)Nc1ccc(C(F)(F)F)cc1F` [Example 254, N-(2-(4-(5-Ethyl-4-(2-((2-fluoro-4-(trifluoromethyl)phenyl)amino)-2-oxoethyl)-2-morpholino-7-oxo-4,7-dihydro-[1,2,4]triazolo[1,5-a]pyrimidin-6-yl)piperazin-1-yl)-2-oxoethyl)-2-fluorobenzamide], the IC50 in assay [1] and in assay [2] was less than 100 nM each time.

As to `CCc1c(N2CCN(C(=O)CNC(=O)c3ncnc(C)c3O)CC2)c(=O)n2nc(C3=CCOCC3)nc2n1CC(=O)Nc1ccc(C(F)(F)F)cc1F` [Example 222, N-(2-(4-(2-(3,6-Dihydro-2H-pyran-4-yl)-5-ethyl-4-(2-((2-fluoro-4-(trifluoromethyl)phenyl)amino)-2-oxoethyl)-7-oxo-4,7-dihydro-[1,2,4]triazolo[1,5-a]pyrimidin-6-yl)piperazin-1-yl)-2-oxoethyl)-5-hydroxy-6-methylpyrimidine-4-carboxamide], the IC50 in assay [1] and in assay [2] was less than 100 nM each time.

For the compound `CCc1c(N2CCN(C(=O)c3c[nH]c(=O)n(C)c3=O)CC2)c(=O)n2nc(C3=CCOCC3)nc2n1CC(=O)Nc1ccc(C(F)(F)F)cc1Cl` [Example 43, N-(2-Chloro-4-(trifluoromethyl)phenyl)-2-(2-(3,6-dihydro-2H-pyran-4-yl)-5-ethyl-6-(4-(3-methyl-2,4-dioxo-1,2,3,4-tetrahydropyrimidine-5-carbonyl)piperazin-1-yl)-7-oxo-[1,2,4]triazolo[1,5-a]pyrimidin-4(7H)-yl)acetamide], the IC50 is 100 to 1000 nM in assay [1] and less than 100 nM in assay [2].

For the compound `CCc1c(N2CCN(C(=O)C(=O)NC)CC2)c(=O)n2nc(C3=CCOCC3)nc2n1CC(=O)Nc1ccc(C(F)(F)F)cc1Cl` [Example 329, 2-(4-(4-(2-((2-Chloro-4-(trifluoromethyl)phenyl)amino)-2-oxoethyl)-2-(3,6-dihydro-2H-pyran-4-yl)-5-ethyl-7-oxo-4,7-dihydro-[1,2,4]triazolo[1,5-a]pyrimidin-6-yl)piperazin-1-yl)-N-methyl-2-oxoacetamide], the IC50 in assay [1] and in assay [2] was 100 to 1000 nM each time.
